PMC11868579 (Nature Communications, 2024)

Assays:
[1] = system: c-Myc-activity; test: c-Myc-regulated luciferase reporter in SW620 cells; type: cell-based, human; conditions: for c-Myc, Average / CMV, Average: SW620; for c-Myc, Average: c-Myc-regulated firefly luciferase reporter; for CMV, Average: constitutive CMV promoter-regulated renilla luciferase reporter
Experimental: Luminescence was measured using the Dual-glo luciferase assay (mean ± SEM from 3 biological replicates). b SW620 cells were transfected with a c-Myc-regulated firefly luciferase expression reporter or a constitutive CMV promoter-regulated renilla luciferase reporter. Cells were treated for 24 hr with 1 or 10 µM compound 4 or the […] kinase inhibitor AZD8055 as positive control (mean ± SEM from 3 biological replicates). An ordinary one-way ANOVA with Tukey multiple comparisons test was performed comparing c-Myc-regulated firefly luciferase expression or CMV-regulated Renilla luciferase expression following the different treatments. For c-Myc-regulated firefly luciferase expression, all significant p values […]
were <0.0001. […]
Source data is located in the Supplementary Source Data file

[2] = system: SW620 cells; test: CellTiter-Blue cell viability, SW620; type: cell-based, human; conditions: SW620, 4 days
Experimental: Cell viability was measured by CellTiter-Blue® Cell Viability Assay. Cells were seeded in 96 well plates (Corning, cat#353072) and left overnight. Compounds were added at a range of concentrations and plates incubated at 37 °C for 96 hr. Cell titre blue reagent (Promega, Hampshire, UK, cat# G8081) was added (5 μl/well) and incubated for a further 2 h at 37 °C. Fluorescence (579Ex/584Em) was measured using a PHERAstar plate reader.
Supplementary Fig. 10 Determination of the effects of compound 4 on protein synthesis and viability. a HEK293 cells were transfected with protein synthesis reporter expressing bicistonic mRNA with a cap-dependent luciferase reporter and a cap-independent luciferase driven by a viral IRES. Cells were treated with 1 or 10 µM with compound 4 for 24 hr. Luminescence was measured using the Dual-glo luciferase assay (mean ± SEM from 3 biological replicates). b SW620 cells were transfected with a c-Myc-regulated firefly luciferase expression reporter or a constitutive CMV promoter-regulated renilla luciferase reporter. Cells were treated for 24 hr with 1 or 10 µM compound 4 or the […] kinase inhibitor AZD8055 as positive control (mean ± SEM from 3 biological replicates). […]
vs 1 µM AZD8055). c Cell viability measured by cell titre blue assay was performed in SW620 cells treated with compound 4 for 4 days (mean ± SEM from 3 biological replicates). […]

[3] = Human microsomal clearance assay; type: in vitro ADME
[4] = system: eIF4E WT or mutant expression; test: Immunoblot of eIF4E rescue construct expression; type: cell-based, human; conditions: n=3
Source text: Supplementary Fig. 17. Transfection of wild type eIF4E or a series of mutants […]
clone. a Scheme of the workflow to generate genetic rescue models by expression of wild type (WT) eIF4E or mutant eIF4E in the dTAG eIF4E CRISPR clones (Created in BioRender. Powers, M. (2024) https://BioRender.com/q02f176). b Representative […]
replicates). Vinculin was used as a loading control. The immunoblots were cropped to […]
(1 picture or pasted object on this page, not shown here) […]
aid interpretation of the data, original immunoblot images for all repeats are available in the Supplementary Source Data. d Quantification of MCL1 immunoblot signals using Image J. Results are expressed as % MCL-1 normalized to vinculin (mean ± SEM from (c) plus 2 additional biological replicates (see Supplementary Source Data).
Significance (p<0.05) was determined using a one sample t-test (two-tailed) comparing treatment with the control from each cell line. Significance was observed […]
p=0.0153) expressing cells. p values are denoted as *p<0.05, **p<0.01, ***p<0.001, […]
and f 16 hr from (c), using Image J. A one sample t -test was performed for each cell treatment compared to their control and found no significant differences for either tim e point (p>0.05) . Comparison of the control conditions for expression of each mutant with the overexpressed WT using an ordinary one-way ANOVA with Tukey multiple comparisons test found all mutants p<0.001 except S209A (p=0.0337) at 6 hr and all

CC[C@H](O[C@H](C)CO)c1ccc(-c2ccccc2F)cc1NCCO [Compound 4]
c-Myc, Average ([1]; 1μM): 80.09
CMV, Average ([1]; 1μM): 89.27
c-Myc, Average ([1]; 10μM): 67.68
CMV, Average ([1]; 10μM): 82.92
activity in c-Myc reporter assay ([1]; SW620 cells, 1 or 10 µM, 24 hr): showed no activity
antiproliferative activity [2]: lacked on-target antiproliferative activity
Human microsomal intrinsic clearance ([3]; 1 µM, 0.25 mg/mL microsomes): 210 µL/min/mg protein
clearance in human liver microsomes ([3]; human): moderate clearance

CC[C@H](C(=O)N1CCCC[C@H]1C(=O)O[C@H](CCc1ccc(OC)c(OC)c1)c1ccccc1OCC(=O)NCCCCCCC(=O)N[C@H](C(=O)N1C[C@H](O)C[C@H]1C(=O)N[C@@H](C)c1ccc(-c2scnc2C)cc1)C(C)(C)C)c1cc(OC)c(OC)c(OC)c1 [dTAG^V-1]
Quantification of eIF4E (6 hr) normalised to WT expression, Average ([4]; C3-1, 0.5 uM): 0.00
Quantification of eIF4E (16 hr) normalised to WT expression, Average ([4]; C3-1, 0.5 uM): 0.00
Quantification of eIF4E (6 hr) normalised to WT expression, Average ([4]; C3-1, 1 uM): 0.00
Quantification of eIF4E (16 hr) normalised to WT expression, Average ([4]; C3-1, 1 uM): 0.00
Quantification of eIF4E (6 hr) normalised to WT expression, Average ([4]; L85R, 0.5 uM): 51.11
Quantification of eIF4E (16 hr) normalised to WT expression, Average ([4]; L85R, 0.5 uM): 19.14
Quantification of eIF4E (6 hr) normalised to WT expression, Average ([4]; L85R, 1 uM): 46.78
Quantification of eIF4E (16 hr) normalised to WT expression, Average ([4]; L85R, 1 uM): 21.33
Quantification of eIF4E (6 hr) normalised to WT expression, Average ([4]; L134R, 0.5 uM): 32.49
Quantification of eIF4E (16 hr) normalised to WT expression, Average ([4]; L134R, 0.5 uM): 17.61
Quantification of eIF4E (6 hr) normalised to WT expression, Average ([4]; L134R, 1 uM): 23.94
Quantification of eIF4E (16 hr) normalised to WT expression, Average ([4]; L134R, 1 uM): 19.17
Quantification of eIF4E (6 hr) normalised to WT expression, Average ([4]; S209A, 0.5 uM): 94.19
Quantification of eIF4E (16 hr) normalised to WT expression, Average ([4]; S209A, 0.5 uM): 103.66
Quantification of eIF4E (6 hr) normalised to WT expression, Average ([4]; S209A, 1 uM): 88.26
Quantification of eIF4E (16 hr) normalised to WT expression, Average ([4]; S209A, 1 uM): 106.16
Quantification of eIF4E (16 hr) normalised to WT expression, Average ([4]; W56A, 0.5 uM (Conc column empty, by row)): 63.22
Quantification of eIF4E (6 hr) normalised to WT expression, Average ([4]; W56A, 0.5 uM): 56.71
Quantification of eIF4E (16 hr) normalised to WT expression, Average ([4]; W56A, 1 uM (Conc column empty, by row)): 50.88
Quantification of eIF4E (6 hr) normalised to WT expression, Average ([4]; W56A, 1 uM): 52.12
Quantification of eIF4E (6 hr) normalised to WT expression, Average ([4]; W73F/L85R, 0.5 uM): 30.95
Quantification of eIF4E (16 hr) normalised to WT expression, Average ([4]; W73F/L85R, 0.5 uM): 15.77
Quantification of eIF4E (6 hr) normalised to WT expression, Average ([4]; W73F/L85R, 1 uM): 30.11
Quantification of eIF4E (16 hr) normalised to WT expression, Average ([4]; W73F/L85R, 1 uM): 16.64
Quantification of eIF4E (6 hr) normalised to WT expression, Average ([4]; W73F, 0.5 uM): 72.55
Quantification of eIF4E (16 hr) normalised to WT expression, Average ([4]; W73F, 0.5 uM): 42.45
Quantification of eIF4E (6 hr) normalised to WT expression, Average ([4]; W73F, 1 uM): 71.88
Quantification of eIF4E (16 hr) normalised to WT expression, Average ([4]; W73F, 1 uM): 30.23
Quantification of eIF4E (6 hr) normalised to WT expression, Average ([4]; WT, 0.5 uM): 100.00
Quantification of eIF4E (16 hr) normalised to WT expression, Average ([4]; WT, 0.5 uM): 100.00
Quantification of eIF4E (6 hr) normalised to WT expression, Average ([4]; WT, 1 uM): 100.00
Quantification of eIF4E (16 hr) normalised to WT expression, Average ([4]; WT, 1 uM): 100.00
